# Measurements as given in ChEMBL document CHEMBL3039007, “Structure-based identification of OATP1B1/3 inhibitors” (Mol Pharmacol, 2013).
# Experiments:
# [1] = biological target: T1, Solute carrier organic anion transporter family member 1B1 (Homo sapiens, UniProt Q9Y6L6); settings: chinese hamster, cho, 10 µM
# T1 sequence (Q9Y6L6 whole entry): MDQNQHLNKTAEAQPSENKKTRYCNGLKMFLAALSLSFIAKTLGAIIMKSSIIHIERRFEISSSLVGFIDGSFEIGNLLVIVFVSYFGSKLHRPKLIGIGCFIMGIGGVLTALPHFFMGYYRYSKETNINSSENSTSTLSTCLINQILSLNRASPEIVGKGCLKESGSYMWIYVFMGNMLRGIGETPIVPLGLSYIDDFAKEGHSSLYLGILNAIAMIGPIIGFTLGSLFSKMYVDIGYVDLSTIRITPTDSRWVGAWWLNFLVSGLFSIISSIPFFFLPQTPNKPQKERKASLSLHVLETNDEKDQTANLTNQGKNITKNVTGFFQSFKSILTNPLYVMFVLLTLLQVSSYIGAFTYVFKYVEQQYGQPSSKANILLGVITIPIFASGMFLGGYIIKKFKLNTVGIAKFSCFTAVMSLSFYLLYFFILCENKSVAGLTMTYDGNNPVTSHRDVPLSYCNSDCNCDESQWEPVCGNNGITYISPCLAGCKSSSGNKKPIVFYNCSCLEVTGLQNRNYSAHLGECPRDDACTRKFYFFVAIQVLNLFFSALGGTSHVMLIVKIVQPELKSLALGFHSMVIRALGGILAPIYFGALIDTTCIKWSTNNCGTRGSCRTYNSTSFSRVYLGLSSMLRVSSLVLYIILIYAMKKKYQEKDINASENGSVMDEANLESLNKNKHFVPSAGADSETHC
# [2] = biological target: T2, Solute carrier organic anion transporter family member 1B3 (Homo sapiens, UniProt Q9NPD5); settings: chinese hamster, cho, 10 µM
# T2 sequence (Q9NPD5 whole entry): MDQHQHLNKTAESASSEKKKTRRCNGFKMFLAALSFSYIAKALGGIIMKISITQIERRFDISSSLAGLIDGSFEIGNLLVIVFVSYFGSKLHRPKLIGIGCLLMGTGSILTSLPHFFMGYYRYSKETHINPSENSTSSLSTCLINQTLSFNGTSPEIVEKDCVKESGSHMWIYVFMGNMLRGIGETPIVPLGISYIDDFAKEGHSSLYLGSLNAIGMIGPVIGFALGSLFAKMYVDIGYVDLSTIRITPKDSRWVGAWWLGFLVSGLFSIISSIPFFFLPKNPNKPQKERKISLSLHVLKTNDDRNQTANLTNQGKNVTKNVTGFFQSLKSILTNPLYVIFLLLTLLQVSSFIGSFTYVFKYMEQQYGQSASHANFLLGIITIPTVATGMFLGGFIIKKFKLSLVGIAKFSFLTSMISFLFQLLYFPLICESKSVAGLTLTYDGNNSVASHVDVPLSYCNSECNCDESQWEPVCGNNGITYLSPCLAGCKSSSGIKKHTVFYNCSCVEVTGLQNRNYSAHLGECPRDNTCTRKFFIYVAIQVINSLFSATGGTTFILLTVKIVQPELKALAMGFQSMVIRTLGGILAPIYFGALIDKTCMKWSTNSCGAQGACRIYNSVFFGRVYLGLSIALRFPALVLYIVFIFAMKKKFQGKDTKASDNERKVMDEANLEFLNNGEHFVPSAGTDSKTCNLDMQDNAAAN
SMILES,residual activity [1] [%],residual activity [2] [%]
COc1cc2c(cc1OC)C1(O)C(=O)c3ccc(O)c(C(=O)O)c3OC1CO2 (centres undefined) [12a-HYDROXY-9-DEMETHYLMUNDUSERONE-8-CARBOXYLIC ACID],215.8,86.59
"Cc1ccc2c(c1)CC[C@H]1CC(=O)CC[C@]21C [13-METHYL-4,4-BISNOR-8,11,13-PODOCARPATRIEN-3-ONE]",162.9,93.8
"COc1cccc2c1CCC1=CC(=O)CC[C@@]12C [14-METHOXY-4,4-BISNOR-4,8,11,13-PODOCARPATETRAEN-3-ONE]",143.1,94.94
"COc1cccc2c1CCC1CC(=O)CC[C@]21C (some centres undefined) [14-METHOXY-4,4-BISNOR-8,11,13-PODOCARPATRIEN-3-ONE]",118,100.9
C/C1=C\CCC(=O)C2CC(C)(C)C2CC1 (centres undefined) [15-NORCARYOPHYLLEN-3-ONE],72.07,90.82
COC(=O)C[C@H]1C(C)(C)C(=O)[C@H]2CC3=C4CC(OC)O[C@@H](c5ccoc5)[C@@]4(C)CCC3[C@]1(C)C2=O (some centres undefined) [16-DEOXOMEXICANOLIDE 16-METHYL ETHER],53.47,141.6
"CC(C)c1ccc2c(c1)CCC1[C@](C)(CN)CCC[C@]21C.O=S(=O)(O)O (some centres undefined) [18-AMINOABIETA-8,11,13-TRIENE SULFATE]",102.4,99.03
CC(C)c1c(O)ccc2c1CC[C@H]1[C@@](C)(CO)CCC[C@]21C [19-HYDROXYTOTAROL],15.89,20.52
CC(C)(O)CC[C@@H](O)[C@](C)(O)[C@H]1CC[C@@]2(O)C3=CC(=O)[C@@H]4C[C@@H](O)[C@@H](O)C[C@]4(C)[C@H]3CC[C@]12C [20-HYDROXYECDYSONE],115,127.1
"C[C@H](N)[C@H](O)c1ccccc1 [(1R,2S)-PHENYLPROPANOLAMINE]",97.41,87
CC(=O)C1=C(O)C=C2Oc3c(C(C)=O)c(O)c(C)c(O)c3[C@@]2(C)C1=O [(+)-USNIC ACID],31.05,69.13
Oc1cc(O)c2c(c1)O[C@H](c1ccc(O)c(O)c1)[C@H](O)C2 [(-)-EPICATECHIN],80.37,77.92
CN[C@@H](Cc1c[nH]c2ccccc12)C(=O)O [ABRINE],86.73,98.3
COc1ccc(-c2cc(=O)c3c(OC(C)=O)cc(OC(C)=O)cc3o2)cc1 [ACACETIN DIACETATE],133.5,127.6
CCCC(=O)Nc1ccc(OCC(O)CNC(C)C)c(C(C)=O)c1.Cl (centres undefined) [ACEBUTOLOL HYDROCHLORIDE],74.42,93.16
CCN(CC)CCNC(=O)c1ccc(NC(C)=O)cc1.Cl [ACECAINIDE HYDROCHLORIDE],70.32,90.6
COc1ccc2c(c1)c(CC(=O)OCC(=O)O)c(C)n2C(=O)c1ccc(Cl)cc1 [ACEMETACIN],57.75,84.99
COP(=O)(NC(C)=O)SC (centres undefined) [ACEPHATE],75.83,83.6
CC(=O)Nc1ccc(O)cc1 [ACETAMINOPHEN],99.98,96.68
CC(=O)Nc1ccc(OC(=O)c2ccccc2O)cc1 [ACETAMINOSALOL],103.1,102.7
CC(=O)Nc1ccccc1 [ACETANILIDE],96.78,100.2
CC(=O)Nc1cc([As](=O)(O)O)ccc1O [ACETARSONE],58.73,85.71
CC(=O)Nc1nnc(S(N)(=O)=O)s1 [ACETAZOLAMIDE],90.74,84.51
CCOCN(C(=O)CCl)c1c(C)cccc1CC [ACETOCHLOR],74.59,84.4

SMILES,residual activity [1] [%],residual activity [2] [%]
CC(=O)NO [ACETOHYDROXAMIC ACID],91.26,100.9
COc1cc(C(C)=O)cc(OC)c1O [ACETOSYRINGONE],104.7,115.4
CC(=O)Nc1c(I)cc(I)c(C(=O)O)c1I [ACETRIZOIC ACID],133.1,98.63
CC(=O)O[C@H]1CC[C@]2(C)[C@H]3CC=C4[C@@H]5CC(C)(C)CC[C@]5(C(=O)O)CC[C@@]4(C)[C@]3(C)CC[C@H]2C1(C)C [ACETYL OLEANOLIC ACID],37.04,24.66
CCOC(=O)C(Cc1ccc(O)cc1)NC(C)=O (centres undefined) [ACETYL TYROSINE ETHYL ESTER],118.5,103.5
CC(=O)N[C@@H](CS)C(=O)O [ACETYLCYSTEINE],82.21,89.21
CC(=O)NCCc1c[nH]c2ccc(O)cc12 [ACETYLSEROTONIN],100.7,91.29
CC(=O)N[C@@H](Cc1c[nH]c2ccccc12)C(N)=O [ACETYLTRYPTOPHANAMIDE],85.16,60.38
CC(=O)N[C@@H](Cc1c[nH]c2ccccc12)C(=O)O [ACETYLTRYPTOPHAN],63.36,85.99
CC(=O)NCCCCCC(=O)O [ACEXAMIC ACID],144.2,111.3
N[C@H](C(=O)O)[C@@H]1CC(Cl)=NO1 [ACIVICIN],137.7,113.3
CC[C@@]1(O)C[C@H](O[C@H]2C[C@H](N(C)C)[C@H](O[C@H]3C[C@H](O)[C@H](O[C@H]4CCC(=O)[C@H](C)O4)[C@H](C)O3)[C@H](C)O2)c2c(cc3c(c2O)C(=O)c2c(O)cccc2C3=O)[C@H]1C(=O)OC [ACLARUBICIN],95.52,107.1
O=C(O)/C=C(\CC(=O)O)C(=O)O [ACONITIC ACID],102.5,88.62
CCN1C[C@]2(COC)[C@H](O)C[C@H](OC)[C@@]34[C@@H]5C[C@@]6(O)[C@H](OC(=O)c7ccccc7)[C@@H]5[C@@](OC(C)=O)([C@@H]([C@H](OC)[C@H]23)[C@@H]14)[C@@H](O)[C@@H]6OC [ACONITINE],65.77,85.31
CCCCCCc1ccc(O)cc1O.Nc1c2ccccc2nc2ccccc12 [ACRISORCIN],70.31,120.2
Nc1nc2c(ncn2COCCO)c(=O)[nH]1 [ACYCLOVIR],103.4,105.5
Nc1ncnc2nc[nH]c12 [ADENINE],90.14,81.98
Nc1ncnc2c1ncn2[C@@H]1O[C@H](COP(=O)(O)O)[C@@H](O)[C@H]1O [ADENOSINE PHOSPHATE],91.52,90.72
CCN(CC)CCOC(=O)C(c1ccccc1)c1ccccc1.Cl [ADIPHENINE HYDROCHLORIDE],59.48,95.82
CC(=O)NC(Cc1ccccc1)C(=O)O (centres undefined) [AFALANINE],114.2,112.5
CC1=CCCC2C1(C)CCC(C)C2(C)CC/C(C)=C/Cn1c[n+](C)c2c(N)ncnc21 (centres undefined) [AGELASINE (stereochemistry of diterpene unknown)],56.98,93.91
N=C(N)NCCCCN.O=S(=O)(O)O [AGMATINE SULFATE],111.9,110
CC[C@H]1[C@@H]2C[C@H]3[C@@H]4N(C)c5ccccc5[C@]45C[C@@H]([C@@H]2[C@H]5O)N3[C@@H]1O [AJMALINE],34.58,91.52
